Assay results taken from the NIST ThermoML archive (doi:10.1016/j.jct.2016.09.014).
Numbers after ± are expanded uncertainties.

Assay: mn = molality of the nth substance listed, in mol/kg
Conditions: 298.15 K, 101.3 kPa, Liquid; for binary diffusion coefficient: Taylor dispersion method; for mass density: Vibrating tube method

With NCCCC(=O)O [4-aminobutanoic acid] + O the binary diffusion coefficient (m1 = 0.001003) was 7.8e-10 m2/s, the binary diffusion coefficient (m1 = 0.005016) was 7.79e-10 m2/s and the binary diffusion coefficient (m1 = 0.01004) was 7.78e-10 m2/s. It also gave a binary diffusion coefficient (m1 = 0.02009) of 7.77e-10 m2/s, a binary diffusion coefficient (m1 = 0.03015) of 7.76e-10 m2/s and a binary diffusion coefficient (m1 = 0.05033) of 7.72e-10 m2/s. The binary diffusion coefficient (m1 = 0.101) was 7.65e-10 m2/s, the mass density (m1 = 0.00106) was 997.083 ± 0.31 kg/m3 and the mass density (m1 = 0.00258) was 997.127 ± 0.31 kg/m3. The mass density (m1 = 0.00467) was 997.199 ± 0.31 kg/m3, the mass density (m1 = 0.00517) was 997.203 ± 0.31 kg/m3 and the mass density (m1 = 0.00833) was 997.308 ± 0.31 kg/m3. The mass density (m1 = 0.01088) was 997.389 ± 0.31 kg/m3, the mass density (m1 = 0.01968) was 997.658 ± 0.31 kg/m3 and the mass density (m1 = 0.03823) was 998.069 ± 0.31 kg/m3. It also gave a mass density (m1 = 0.05427) of 998.687 ± 0.31 kg/m3, a mass density (m1 = 0.06297) of 998.944 ± 0.31 kg/m3 and a mass density (m1 = 0.07297) of 999.113 ± 0.31 kg/m3. It also gave a mass density (m1 = 0.1017) of 1000.1 ± 0.31 kg/m3.
